Data on one compound can be found in publication PMC11638952, “Fine-Tuning the Function of Farnesene Synthases for Selective Synthesis of Farnesene Stereoisomers” (Journal of Agricultural and Food Chemistry, 2024).

Holding throughout (conditions): 50 mM Tris-HCl pH 8.0, 10 μM MgCl2, 30 °C, 10 min, FPP 2-80 μM
The target in assay [1] is T1, AaFS (Artemisia annua, UniProt Q9FXY7, L326I, form not given).
T1 construct: gene CASC125
The text has this:
(§1) steady-state kinetics, product quantified by peak area after hexane extraction on AaFS

Assay [2] addresses T2, AaFS (Artemisia annua, UniProt Q9FXY7, M436I, form not given).
T2 construct: gene CASC125
Description: as §1

The target in assay [3] is T3, AaFS (Artemisia annua, UniProt Q9FXY7).
T3 construct: gene CASC125
Description: as §1

Assay [4] has as its target T4, AaFS (Artemisia annua, UniProt Q9FXY7, W299C, form not given).
T4 construct: gene CASC125
Description: as §1

T4 sequence (Q9FXY7 whole entry W299C, form open): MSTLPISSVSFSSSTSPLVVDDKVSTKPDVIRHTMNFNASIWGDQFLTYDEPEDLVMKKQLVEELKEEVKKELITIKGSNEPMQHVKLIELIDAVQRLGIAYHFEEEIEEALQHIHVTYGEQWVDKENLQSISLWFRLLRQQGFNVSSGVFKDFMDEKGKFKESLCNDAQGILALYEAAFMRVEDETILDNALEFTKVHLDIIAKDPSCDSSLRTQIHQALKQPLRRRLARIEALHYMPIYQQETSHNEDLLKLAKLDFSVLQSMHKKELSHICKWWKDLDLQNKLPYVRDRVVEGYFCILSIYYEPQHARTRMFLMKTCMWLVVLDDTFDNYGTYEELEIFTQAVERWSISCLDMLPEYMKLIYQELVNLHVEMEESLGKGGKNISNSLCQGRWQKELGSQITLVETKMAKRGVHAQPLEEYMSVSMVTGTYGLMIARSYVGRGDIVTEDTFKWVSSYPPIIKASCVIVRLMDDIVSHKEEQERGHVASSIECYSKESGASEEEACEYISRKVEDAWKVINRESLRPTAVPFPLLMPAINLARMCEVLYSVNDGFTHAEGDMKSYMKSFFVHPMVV
T2 sequence (Q9FXY7 whole entry M436I, form open): as the sequence (Q9FXY7 whole entry W299C, form open) above, with C299W, M436I counted along it
T1 sequence (Q9FXY7 whole entry L326I, form open): as the sequence (Q9FXY7 whole entry W299C, form open) above, with C299W, L326I counted along it
T3 sequence (Q9FXY7 whole entry): as the sequence (Q9FXY7 whole entry W299C, form open) above, with C299W counted along it

As a reminder, the Km is the concentration of substrate that gives half-maximal velocity. On to `CC(C)=CCC/C(C)=C/CC/C(C)=C/CO[P@@](=O)(O)OP(=O)(O)O` (stereo in doubt) [FPP, farnesyl pyrophosphate], for which the Km at AaFS [1] was determined as 6.75 ± 3.7 µM; on AaFS [2], 7.64 ± 4.8 µM; at AaFS [3] it was 14.3 ± 2.3 µM; on AaFS [4] it was 21.3 ± 1.8 µM.
